This passage reports IC50 results from ChEMBL document CHEMBL3259525, “Plasmepsin inhibitory activity and structure-guided optimization of a potent hydroxyethylamine-based antimalarial hit” (ACS Med Chem Lett, 2014).

The IC50 is the concentration that gives 50% inhibition.

Structures are written as SMILES.

In one assay the target is Plasmepsin I (Plasmodium falciparum, UniProt P39898). In words: Inhibition of Plasmodium falciparum plasmepsin-1 using DABCYL-Glu-Arg-Nle-Phe-Leu-Ser-Phe-Pro-EDANS as substrate preincubated for 30 mins by FRET assay.
Chain of Plasmepsin I (P39898 whole entry): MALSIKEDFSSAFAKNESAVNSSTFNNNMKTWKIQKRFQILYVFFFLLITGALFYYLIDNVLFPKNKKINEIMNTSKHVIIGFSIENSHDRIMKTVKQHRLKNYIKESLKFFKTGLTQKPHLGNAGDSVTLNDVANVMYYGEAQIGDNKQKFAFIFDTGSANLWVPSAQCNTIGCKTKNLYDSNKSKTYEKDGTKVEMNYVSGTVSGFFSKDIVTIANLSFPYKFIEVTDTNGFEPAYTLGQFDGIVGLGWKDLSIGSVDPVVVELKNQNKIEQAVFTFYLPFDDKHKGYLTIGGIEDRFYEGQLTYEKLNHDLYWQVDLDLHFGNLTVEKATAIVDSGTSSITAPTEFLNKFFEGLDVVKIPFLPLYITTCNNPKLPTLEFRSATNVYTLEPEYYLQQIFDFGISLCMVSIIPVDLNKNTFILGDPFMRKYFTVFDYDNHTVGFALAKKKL
A further assay deals with Plasmepsin II (Plasmodium falciparum, UniProt P46925). Kind of assay: Inhibition of Plasmodium falciparum plasmepsin-2 using DABCYL-Glu-Arg-Nle-Phe-Leu-Ser-Phe-Pro-EDANS as substrate preincubated for 30 mins by FRET assay.
Chain of Plasmepsin II (P46925 whole entry): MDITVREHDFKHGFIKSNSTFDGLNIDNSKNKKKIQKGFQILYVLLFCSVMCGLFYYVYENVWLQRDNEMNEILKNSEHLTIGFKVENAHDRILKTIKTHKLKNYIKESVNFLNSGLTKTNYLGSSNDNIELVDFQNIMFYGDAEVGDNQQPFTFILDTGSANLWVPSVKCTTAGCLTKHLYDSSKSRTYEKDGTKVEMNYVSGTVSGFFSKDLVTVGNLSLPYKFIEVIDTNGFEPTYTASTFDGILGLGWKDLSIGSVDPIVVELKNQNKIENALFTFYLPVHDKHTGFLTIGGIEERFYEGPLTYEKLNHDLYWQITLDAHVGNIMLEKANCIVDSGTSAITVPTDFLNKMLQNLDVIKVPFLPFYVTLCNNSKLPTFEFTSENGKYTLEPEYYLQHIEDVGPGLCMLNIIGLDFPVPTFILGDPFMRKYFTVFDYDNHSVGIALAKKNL
Assay [1] can be described thus: Inhibition of Plasmodium falciparum plasmepsin-4 using DABCYL-Glu-Arg-Nle-Phe-Leu-Ser-Phe-Pro-EDANS as substrate preincubated for 30 mins by FRET assay.
The next assay concerns the target Cathepsin D (Homo sapiens, UniProt P07339). In words: Inhibition of human cathepsin-D using DABCYL-Glu-Arg-Nle-Phe-Leu-Ser-Phe-Pro-EDANS as substrate preincubated for 30 mins by FRET assay.
Assay [2] relates to Plasmodium falciparum. In words: Antimalarial activity against blood-stage Plasmodium falciparum 3D7 assessed as inhibition of parasite growth after 96 hrs by SYBR Green I assay. The assay is classed as functional, organism-based. To be noted: 3D7, 96 h.
Assay [3] has as its system Plasmodium falciparum. In words: Antimalarial activity against intra erythrocytic Plasmodium falciparum assessed as inhibition of parasite growth. The assay is classed as functional, organism-based.

Chain of Cathepsin D (P07339 65-162 limits assumed): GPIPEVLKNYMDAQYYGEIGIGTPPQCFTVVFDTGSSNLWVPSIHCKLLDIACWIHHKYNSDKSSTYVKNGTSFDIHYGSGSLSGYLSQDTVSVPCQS
Chain of Cathepsin D (P07339 169-412 limits assumed): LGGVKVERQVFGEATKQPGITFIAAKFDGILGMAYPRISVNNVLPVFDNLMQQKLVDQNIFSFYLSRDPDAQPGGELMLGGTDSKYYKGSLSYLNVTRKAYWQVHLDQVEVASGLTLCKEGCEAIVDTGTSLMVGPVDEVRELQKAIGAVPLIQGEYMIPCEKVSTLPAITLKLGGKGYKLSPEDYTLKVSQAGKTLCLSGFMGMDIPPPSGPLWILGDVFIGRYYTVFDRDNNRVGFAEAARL

As to `CCCNC(=O)c1cc(C(=O)N[C@@H](Cc2ccccc2)[C@H](O)CNC(C)(C)c2cccc(OC)c2)cc(N2CCCCC2)c1`, the IC50 at Plasmepsin I turned out to be 750 nM; against Plasmepsin II, 500 nM; in assay [1] it was 38 nM; on Cathepsin D, 110 nM.

Turning to `CCCN(CCC)C(=O)c1cc(C(=O)N[C@@H](Cc2ccccc2)[C@@H](O)CNC(C)(C)c2cccc(OC)c2)cc(N2CCCCS2(=O)=O)c1`, the IC50 at Plasmepsin I stood at 18000 nM; at Plasmepsin II it was 14000 nM; in assay [1], 470 nM; on Cathepsin D, 4400 nM; with Plasmodium falciparum [2], 200 nM.

In the case of `CCCN(CCC)C(=O)c1cc(C(=O)N[C@@H](Cc2ccccc2)[C@H](O)CNC(C)(C)c2ccccc2)cc(N2CCCCS2(=O)=O)c1`, the IC50 against Plasmepsin I is 2300 nM; at Plasmepsin II, 320 nM; in assay [1] it was 48 nM; against Cathepsin D, 120 nM.

On to `CCCN(CCC)C(=O)c1cc(C(=O)N[C@@H](Cc2ccccc2)[C@@H](O)CNC(C)(C)c2ccccc2)cc(N2CCCCS2(=O)=O)c1`, for which the IC50 on Plasmepsin I came out at 45000 nM; against Plasmepsin II, 24000 nM; in assay [1], 720 nM; against Cathepsin D, 5800 nM.

In the case of `CCCN(CCC)C(=O)c1cc(C(=O)N[C@@H](Cc2ccccc2)[C@H](O)CNC(C)(C)c2cccc(OC)c2)cc(N2CCCCC2)c1`, the IC50 on Plasmepsin I was determined as 300 nM; against Plasmepsin II it was 70 nM; in assay [1], 24 nM; against Cathepsin D it was 42 nM; with Plasmodium falciparum [2], 6 nM.

Take `CCCN(CCC)C(=O)c1cc(C(=O)N[C@@H](Cc2ccccc2)[C@H](O)CNC(C)(C)c2cccc(O)c2)cc(N2CCCCC2)c1`: the IC50 against Plasmepsin I came out at 360 nM; against Plasmepsin II it was 100 nM; in assay [1], 19 nM; on Cathepsin D, 40 nM.

In the case of `CCCN(CCC)C(=O)c1cc(C(=O)N[C@@H](Cc2ccccc2)[C@H](O)CNC(C)(C)c2ccccc2)cc(N2CCCCC2)c1`, the IC50 at Plasmepsin I stood at 380 nM; against Plasmepsin II, 110 nM; in assay [1] it was 23 nM; on Cathepsin D it was 51 nM.

For the molecule `CCCN(CCC)C(=O)c1cc(C(=O)N[C@@H](Cc2ccccc2)[C@H](O)CNC(C)(C)c2ccccn2)cc(N2CCCCC2)c1`, the IC50 against Plasmepsin I stood at 4100 nM; against Plasmepsin II, 800 nM; in assay [1] it was 250 nM; at Cathepsin D it was 350 nM.

In the case of `CCCN(CCC)C(=O)c1cc(C(=O)N[C@@H](Cc2ccccc2)[C@H](O)CNC(C)(C)c2cccnc2)cc(N2CCCCC2)c1`, the IC50 was determined as 350 nM at Plasmepsin I, 190 nM at Plasmepsin II, 64 nM in assay [1] and 140 nM on Cathepsin D.

As to `CCCN(CCC)C(=O)c1cc(C(=O)N[C@@H](Cc2ccccc2)[C@H](O)CNC(C)(C)c2ccncc2)cc(N2CCCCC2)c1`, the IC50 against Plasmepsin I came out at 470 nM; on Plasmepsin II, 270 nM; in assay [1], 90 nM; at Cathepsin D, 170 nM.

In the case of `CCCN(CCC)C(=O)c1cc(C(=O)N[C@@H](Cc2ccccc2)[C@H](O)CNC(C)(C)c2cncc(OC)c2)cc(N2CCCCC2)c1`, the IC50 against Plasmepsin I was 600 nM; against Plasmepsin II, 190 nM; in assay [1], 23 nM; on Cathepsin D, 68 nM.

With `CCCN(CCC)C(=O)c1cc(C(=O)N[C@@H](Cc2ccccc2)[C@H](O)CNC2(c3cccc(OC)c3)CC2)cc(N2CCCCC2)c1`, the IC50 against Plasmepsin I was 330 nM; on Plasmepsin II, 150 nM; in assay [1], 25 nM; on Cathepsin D, 100 nM.

Consider `CCCN(CCC)C(=O)c1cc(C(=O)N[C@@H](Cc2ccccc2)[C@H](O)CNCc2cccc(OC)c2)cc(N2CCCCC2)c1`, for which the IC50 on Plasmepsin I stood at 6100 nM; on Plasmepsin II it was 600 nM; in assay [1], 180 nM; against Cathepsin D it was 200 nM.

For `COc1cccc(C(C)(C)NC[C@@H](O)[C@H](Cc2ccccc2)NC(=O)c2cc(C(=O)N3CCCC3)cc(N3CCCCC3)c2)c1`, the IC50 against Plasmepsin I was found to be 1600 nM; against Plasmepsin II, 500 nM; in assay [1], 110 nM; against Cathepsin D, 38 nM.

Consider `COc1cccc(C(C)(C)NC[C@@H](O)[C@H](Cc2ccccc2)NC(=O)c2cc(C(N)=O)cc(N3CCCCC3)c2)c1`, for which the IC50 against Plasmepsin I amounted to 7600 nM; at Plasmepsin II, 4400 nM; in assay [1] it was 170 nM; against Cathepsin D it was 500 nM.

In the case of `CCCN(CCC)C(=O)c1cc(C(=O)N[C@@H](Cc2ccccc2)[C@H](O)CNC(C)(C)c2cccc(OC)c2)cc(C2CCCCC2)c1`, the IC50 came out at 200 nM against Plasmepsin I, 36 nM against Plasmepsin II, 25 nM in assay [1] and 19 nM against Cathepsin D.

Consider `CCCN(CCC)C(=O)c1cc(C(=O)N[C@@H](Cc2ccccc2)[C@H](O)CNC(C)(C)c2cccc(OC)c2)cc(N2CCCC2)c1`, for which the IC50 against Plasmepsin I was determined as 430 nM; against Plasmepsin II, 120 nM; in assay [1], 7 nM; against Cathepsin D it was 32 nM; with Plasmodium falciparum [2] it was 4 nM.

`CCCN(CCC)C(=O)c1cc(C(=O)N[C@@H](Cc2ccccc2)[C@H](O)CNC(C)(C)c2cccc(OC)c2)cc(-c2ccccc2)c1`: the IC50 at Plasmepsin I turned out to be 250 nM; on Plasmepsin II, 72 nM; in assay [1], 6 nM; on Cathepsin D, 54 nM; in the assay with Plasmodium falciparum [2], 2 nM.

On to `CCCN(CCC)C(=O)c1cc(C(=O)N[C@@H](Cc2ccccc2)[C@H](O)CNCc2cccc(OC)c2)cc(N2CCCCS2(=O)=O)c1`, for which the half-maximal inhibitory concentration (IC50) at Plasmepsin I came out at 18000 nM; against Plasmepsin II, 2700 nM; in assay [1] it was 200 nM; against Cathepsin D, 360 nM.

Take `CCCN(CCC)C(=O)c1cc(C(=O)N[C@@H](Cc2ccccc2)[C@H](O)CNC(C)(C)c2cccc(OC)c2)cc(N2CCCCS2(=O)=O)c1`: the concentration for half-maximal inhibition (IC50) in the assay with Plasmodium falciparum [3] is 30 nM; against Plasmepsin I, 700 nM; against Plasmepsin II it was 150 nM; in assay [1], 29 nM; against Cathepsin D it was 43 nM; in the assay on Plasmodium falciparum [2], 2 nM.
